From paper PMC11721617, “Novel isobavachalcone derivatives induce apoptosis and necroptosis in human non-small cell lung cancer H1975 cells” (Journal of Enzyme Inhibition and Medicinal Chemistry, 2023)
Read-outs that look alike come from different tables or passages of the source.

Experiments:
A549 = test: MTT assay, cytotoxic activity; type: cell-based, human; details: A549 cells
Description: (§1) Four cell lines (H1975, A549, PC9, and Aml-12) were cultured in RPMI 1640 medium containing 10% foetal bovine serum (FBS) and 1% penicillin/streptomycin in an atmosphere with 5% CO2 and 95% relative humidity at 37 °C.
(§2) Cell viability was examined using the MTT assay. The cells grown in the logarithmic phase were seeded in 96-well plates at a density of 5 × 10^3 per well. The cells were treated with various concentrations (0, 5, 10, 20, 40, and 80 μM) of the compound at different times, respectively. At the end of time point, MTT solution (5 mg/ml) was added to each well and incubated at 37 °C for 4 h. Next, the media was removed, and formazan was dissolved in DMSO. Finally, absorbance was measured with a microplate spectrophotometer at 490 nm (Synergy HT, BioTek, VT, USA).

H1975 cells [1] = test: Detection of intracellular ROS (DCFH-DA, flow cytometry); type: cell-based, human
Description: Cells were seeded in 6-well plates at a density of 3 × 10^5 cells/well and incubated with different concentrations (0, 10, 20, 40, and 80 μM) of compound 16 or pre-treated with NAC (20 μM) incubated for 6 h, the cells were co-incubated with DCFH-DA for 20 min at 37° C in the dark. Finally, the intracellular ROS levels were measured using flow cytometry (Becton-Dickinson, Franklin Lakes, NJ, USA).

[2] = MTT assay, cytotoxic activity on normal hepatocytes; type: cell-based, mouse; details: Aml-12 cells (normal hepatocytes); normal mouse hepatocytes Aml-12 cells, 72 h
Description: as §1, §2

Aml-12 cells = test: as above; type: cell-based, mouse; details: Aml-12 cells relative to H1975 cells
Description: as §1, §2

H1975 cells [3] = test: Flow cytometry with Annexin V/PI dual staining; type: cell-based, human; details: 24 h
Description: Cells were seeded (3 × 10^5 per well) in 6-well plates and incubated overnight. After adherence, the cells were treated with various concentrations (0, 10, 20, 40, and 80 μM) of compound 16 for 24 h. Furthermore, the cells were harvested, washed three times with PBS, and stained with Annexin V (FITC Annexin V) and propidium iodide (PI) staining solution for 30 min in the dark. The percentage of cell death was measured by flow cytometry (Becton-Dickinson, Franklin Lakes, NJ, USA).

H1975 cells [4] = test: ATP detection; type: cell-based, human; details: H1975, 10, 20, 40, and 80 μM, 6 h
Description: Cells were seeded in 6-well plates at a density of 3 × 10^5 cells/well and incubated with different concentrations (0, 10, 20, 40, and 80 μM) of compound 16 for 6 h. Afterwards, the cells were washed three times with PBS, lysed with RIPA buffer, and the lysates were centrifuged at 12 000 rpm for 5 min. The intracellular ATP levels were measured using a luminoskan luminometer (Thermo Scientific, Atlanta, GA, USA), according to the ATP assay kit’s protocol.

H1975 = test: MTT assay, cytotoxic activity / cell viability; type: cell-based, human; details: for viability at 40 µM / IC50: Homo sapiens; for IC50: NCI-H1975
Description: as §1, §2

PC9 = test: MTT assay, cytotoxic activity; type: cell-based; details: Homo sapiens, PC-9, PC9 cells, 72 h
Description: as §1, §2

H1975 cells [5] = test: Colony-formation assay; type: cell-based, human; details: 10 days
Description: Cells were seeded at a density of 1.5 × 10^3 cells/well into 6-well plates. When colonies formed, the media was replaced with fresh media at various concentrations of compound 16 (0, 1, 2, and 4 μM) and incubated for 10 days. At the end of the incubation time, the cells were washed three times with PBS, fixed with 4% paraformaldehyde for 15 min, stained with crystal violet solution for 10 min, and photographed.

[6] = system: Bax, Bcl-2, Akt, Cyt C, caspase-9, caspase-3, RIP1, RIP3, p-RIP3, MLKL, p-MLKL in H1975 cells; test: Western blotting of apoptosis- and necroptosis-related proteins; type: cell-based, human
Description: Cells were seeded in 100 mm dishes at a density of 3 × 10^6 cells/well and treated with different concentrations (0, 10, 20, 40, and 80 μM) of compound 16. After incubated for 24 h, the cells were harvested, and washed three times with PBS solution. Next, the cells were lysed with RIPA lysis buffer for 30 min on ice. Protein quantification was determined using the BCA protein assay kit. Equal amounts of proteins were separated by sodium dodecyl sulfate-polyacrylamide gel electrophoresis (SDS-PAGE) and transferred to PVDF membrane. The membrane was blocked with 5% non-fat milk and incubated with primary antibodies (Bax, Bcl-2, Akt, Cyt C, Caspase-9, Caspase-3, RIP1, RIP3, p-RIP3, MLKL, p-MLKL, and β-actin) for 2 h at room temperature, followed by the secondary antibodies for 2 h at room temperature. Finally, the blots were detected by a chemiluminescent gel imaging system (Bio-Rad, Hercules, CA, USA).

COc1cc(C(c2cc(C(=O)C=Cc3ccc(O)cc3)c(O)c(CC=C(C)C)c2O)N2CCOCC2)cc(OC)c1OC (centres unmarked) [Compound 16, (E)-1-(2,4-Dihydroxy-3-(3-methylbut-2-en-1-yl)-5-(morpholino(3,4,5-trimethoxyphe-nyl)methyl)phenyl)-3-(4-hydroxyphenyl)prop-2-en-1-one]
Enhancement of cytotoxic effects compared to IBC (A549): 1.53 fold | IC50 (A549; Homo sapiens, 72 h, MTT): 14.2 µM | Intracellular ROS level enhancement (H1975 cells [1]; H1975, 10 μM, 6 h): 1.86% | Intracellular ROS level enhancement (H1975 cells [1]; H1975, 20 μM, 6 h): 2.21% | Intracellular ROS level enhancement (H1975 cells [1]; H1975, 40 μM, 6 h): 3.74% | Intracellular ROS level enhancement (H1975 cells [1]; H1975, 80 μM, 6 h): 5.82% | Intracellular ROS level enhancement (H1975 cells [1]; H1975, compound 16 (40 μM) alone, Figure 6(E)): 3.75% | Intracellular ROS level enhancement (H1975 cells [1]; H1975, compound 16 (40 μM) in combination with NAC (20 μM), Figure 6(E)): 2.02% | IC50 at 72 h [2]: 10.1 ± 0.58 µM | SI value (selective inhibition) (Aml-12 cells): 2.32 | Cell death rate (Annexin V/PI) (H1975 cells [3]; H1975, 10 μM): 14.7% | Cell death rate (Annexin V/PI) (H1975 cells [3]; H1975, 20 μM): 22.7% | Cell death rate (Annexin V/PI) (H1975 cells [3]; H1975, 40 μM): 34.3% | Cell death rate (Annexin V/PI) (H1975 cells [3]; H1975, 80 μM): 54.9% | Cellular ATP levels (H1975 cells [4]): gradually decreased | Effect of NAC on compound 16 induced cell death (cell viability) (H1975; H1975, compound 16 (40 μM) 24 h, pre-treatment with NAC, p < 0.01, Figure 6(F)): protective effect | Effect of NSA (MLKL inhibitor) on compound 16 induced necroptosis (cell viability) (H1975; H1975, compound 16 (40 μM) 24 h, pre-treatment with NSA (20 μM), p < 0.01): protective effect | Cell viability (H1975; H1975, compound 16 (40 μM) 24 h with pre-treatment with Nec-1 (20 μM), Figure 4(D)): 25.33% | viability at 40 µM (H1975; NCI-H1975, 24 h, H1975, compound 16 (40 μM) alone, 24 h, Figure 3(C)): 12.7% | viability at 40 µM (H1975; NCI-H1975, 24 h, H1975, compound 16 (40 μM) alone, 24 h, Figure 4(D)): 14.8% | viability at 40 µM (H1975; NCI-H1975, H1975, compound 16 (40 μM) 24 h with pre-treatment with z-VAD-FMK (20 μM), Figure 3(C)): 35.4% | IC50 (H1975; H1975 cells, 72 h, MTT, read-out: Cytotoxic activity IC50, H1975): 4.35 µM | IC50 (H1975; read-out: IC50 values against H1975 and A549 cell lines (range over both)): 4.35 to 15 µM | IC50 (PC9): 16.1 µM | Colony formation rate (H1975 cells [5]; H1975, 1 μM): 51.34% | Colony formation rate (H1975 cells [5]; H1975, 2 μM): 27.70% | Colony formation rate (H1975 cells [5]; H1975, 4 μM): 14.87% | RIP1 protein levels ([6]; H1975, 20, 40, and 80 µM): down-regulation | Bax and Cyt C expression ([6]; H1975, 24 h): increasing | Bcl-2 and Akt protein levels ([6]; H1975, 24 h): decreasing | Caspase-9 and -3 ([6]; H1975, 24 h): cleaving | Expression of RIP3, p-RIP3, MLKL, and p-MLKL protein levels ([6]; H1975, 24 h): increased
